How the values were obtained:
UM-SCC-1 cells [1] = assay: In vitro invasion assay on Matrigel coated filters; type: cell-based, human; conditions: 60 hours, serum-free medium, +/− S.E., 3 dishes
Description: Invasion assays were performed as described (20, 25) using filters with 8 μm pore size coated with ⅓ diluted Matrigel®/SFM (Becton Dickinson, Bedford, Mass.). […] For experiments utilizing a mouse monoclonal MMP-9 Antibody (#IM09L, Oncogene Research Products, Cambridge, Mass.) (0.5, 1, and 10 μg/ml) cells were either plated out in SFM plus antibody of SFM plus similar amounts of preimmune serum. The amount of invasion was determined on the basis of the MTT-activity on the lower side of the filter as a percentage of the total activity in the chamber.
The concentration of the carrier (DMSO) was maintained at 0.1%. […] The data are typical of triplicate experiments.
Invasion is expressed as the percentage of cells invading through Matrigel®. Invasion upon treatment with varying concentrations of the antibody recognizing the active and latent form of MMP-9 or preimmune serum provided by the manufacturer is expressed as average percentage+/−S.E. and represents 3 dishes in each group. The data are typical of triplicate experiments.

UM-SCC-1 cells [2] = assay: Cell growth curves (MTT-vital stain); type: cell-based, human; conditions: 5 μM and 10 μM, up to 5 days, medium with 10% FBS
p38γ = target: T1, p38γ (Homo sapiens, UniProt P53778); conditions: reported (ref. 27); cited from earlier work
T1 sequence (P53778 1-367): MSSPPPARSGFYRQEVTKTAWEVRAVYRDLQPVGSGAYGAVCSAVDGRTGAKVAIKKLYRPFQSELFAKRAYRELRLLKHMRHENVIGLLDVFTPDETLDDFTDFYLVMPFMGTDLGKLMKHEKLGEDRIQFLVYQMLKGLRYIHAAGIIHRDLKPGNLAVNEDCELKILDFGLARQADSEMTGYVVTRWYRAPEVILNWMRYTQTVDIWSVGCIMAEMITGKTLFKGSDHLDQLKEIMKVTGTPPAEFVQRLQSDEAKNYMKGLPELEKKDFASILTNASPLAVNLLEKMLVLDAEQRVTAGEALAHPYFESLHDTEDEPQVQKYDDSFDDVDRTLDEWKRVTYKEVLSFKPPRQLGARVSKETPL

p38δ = target: T2, p38δ (Homo sapiens, UniProt O15264); conditions: reported (ref. 27); cited from earlier work
T2 sequence (O15264 1-365): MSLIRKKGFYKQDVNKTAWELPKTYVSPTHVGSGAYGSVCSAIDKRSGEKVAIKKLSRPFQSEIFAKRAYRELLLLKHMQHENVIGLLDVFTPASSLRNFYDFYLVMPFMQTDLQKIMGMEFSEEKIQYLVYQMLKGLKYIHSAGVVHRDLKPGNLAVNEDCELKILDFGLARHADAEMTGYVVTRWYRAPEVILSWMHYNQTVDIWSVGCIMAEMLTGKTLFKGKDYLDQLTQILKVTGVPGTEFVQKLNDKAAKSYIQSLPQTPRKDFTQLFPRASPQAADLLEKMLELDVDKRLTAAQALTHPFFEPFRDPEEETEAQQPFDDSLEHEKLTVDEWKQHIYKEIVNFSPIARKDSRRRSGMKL

MMP-9 = conditions: after treatment with phorbol myristate acetate (PMA); cited from earlier work
UMSCC-1 = conditions: after treatment with phorbol myristate acetate (PMA); cited from earlier work
matrix-metalloproteases = conditions: cited from earlier work

Row | Compound | reduction of in-vitro invasion (UM-SCC-1 cells [1]; 5 μM) | reduction of in-vitro invasion (UM-SCC-1 cells [1]; 10 μM) | effect on cell growth (UM-SCC-1 cells [2]) | inhibition of p38γ (p38γ) | inhibition of p38δ (p38δ) | inhibition of enhanced MMP-9 secretion (MMP-9) | inhibition of enhanced in-vitro invasiveness (UMSCC-1) | IC50 value (matrix-metalloproteases)
1 | C[S+]([O-])c1ccc(-c2nc(-c3ccncc3)c(-c3ccc(F)cc3)[nH]2)cc1 (centres unmarked) [SB 203580] | 43+/−9% | 69+/−8% | does not affect cell growth | not inhibited | not inhibited | could be inhibited | could be inhibited | –
2 | CNC(=O)[C@@H](NC(=O)[C@H](CC(C)C)[C@H](O)C(=O)NO)C(C)(C)C [marimastat] | – | – | – | – | – | – | – | micromolar range

From patent publication US20040067883A1, “Use of matrix metalloprotease inhibitors for the treatment of cancer” (priority 2000, published 2004)
